Measurements published in US20100004222A1, “Amide Derivatives as Ion-Channel Ligands and Pharmaceutical Compositions and Methods of Using the Same” (Renovis, Inc., priority 2006, published 2010).
“Also recorded” adds a separate entry of the source.

Key:
VR1 [1] = molecular target: T1, VR1 (Homo sapiens, UniProt Q8NER1); assay: Calcium uptake assay, capsaicin agonist (high throughput calcium imaging); type: cell-based; set-up: expressed in transfected cells; host or cells: T-REx HEK 293 (Invitrogen), pcDNA5/TO vector; conditions: 3 nM; FIGS. 2-6
Target sequence in this assay (Q8NER1 whole entry): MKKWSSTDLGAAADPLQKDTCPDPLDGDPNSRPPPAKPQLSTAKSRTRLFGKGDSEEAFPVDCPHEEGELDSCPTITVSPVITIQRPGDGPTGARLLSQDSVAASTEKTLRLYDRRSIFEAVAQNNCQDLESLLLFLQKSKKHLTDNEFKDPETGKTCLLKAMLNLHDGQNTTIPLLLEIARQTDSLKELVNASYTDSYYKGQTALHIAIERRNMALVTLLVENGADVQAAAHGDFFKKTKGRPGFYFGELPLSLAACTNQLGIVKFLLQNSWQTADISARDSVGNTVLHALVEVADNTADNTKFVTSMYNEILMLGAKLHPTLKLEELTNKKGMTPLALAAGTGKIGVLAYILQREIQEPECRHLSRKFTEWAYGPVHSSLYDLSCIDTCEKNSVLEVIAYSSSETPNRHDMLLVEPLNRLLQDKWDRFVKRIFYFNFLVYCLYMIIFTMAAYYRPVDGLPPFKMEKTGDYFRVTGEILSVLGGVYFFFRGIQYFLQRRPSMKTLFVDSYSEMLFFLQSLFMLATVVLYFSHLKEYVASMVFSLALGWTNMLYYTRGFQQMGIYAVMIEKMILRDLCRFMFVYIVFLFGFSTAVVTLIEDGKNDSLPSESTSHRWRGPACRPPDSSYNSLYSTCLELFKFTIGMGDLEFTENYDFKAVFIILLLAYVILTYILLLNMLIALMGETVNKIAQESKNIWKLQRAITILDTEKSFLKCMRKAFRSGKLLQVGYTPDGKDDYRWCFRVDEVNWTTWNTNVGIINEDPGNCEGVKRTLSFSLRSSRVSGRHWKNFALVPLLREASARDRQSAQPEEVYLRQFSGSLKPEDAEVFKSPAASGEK

[2] = Pharmacokinetic evaluation following intravenous and oral administration in rats; type: in vivo; conditions: male, Sprague-Dawley, plasma, rat; for bioavailability: AUCinf (PO)/AUCinf (IV), dose normalized, PO 5 mg/kg, read-out: Oral Bioavailability F (%); for clearance: non-compartmental analysis, read-out: In vivo Clearance (converted)
Procedure: Male Sprague-Dawley rats are acclimatized for at least 24 hours prior to experiment initiation. During acclimation period, all animals receive food and water ad libitum. However, food but not water is removed from the animal's cages at least 12 hours before initiation of the experiment. During the first 3 hours of experimentation, the animals receive only water ad libitum. At least three animal each are tested for intravenous and oral dosage. For intravenous formulation, compounds were dissolved (0.25 to 1 mg/mL) in a mixture of 3% dimethyl sulfoxide, 40% PEG 400 and the rest percentage of 40% Captisol in water (w/v). For oral formulation, compounds of this invention are dissolved (2 mg/mL) in a mixture of 5% of 10% Tween 80 in water (v/v) and 95% of 0.5% methyl cellulose in water (w/v). The animals are weighed before dosing. The determined body weight is used to calculate the dose volume for each animal.
Dose volume(mL/kg)=1 mg/kg/formulation concentration(mg/mL)
In instances where the formulation concentrations were less than 0.5 mg/mL, the dosing volume is about 2 mL/kg. PO rats are typically dosed through oral gavage at 2.5 mL/kg to achieve a dose level of 5 mg/kg. For IV dosing, blood samples are collected (using a pre-heparinized syringe) via the jugular vein catheter at 2, 5, 15, 30, 60, 120, 180, 300, 480, and 1440 minutes post dosing. For PO dosing, blood samples are collected (using a pre-heparinized syringe) via the jugular vein catheter before dosing and at 5, 15, 30, 60, 120, 180, 300, 480, and 1440 minutes post dosing. About 250 uL of blood is obtained at each time point from the animal. Equal volumes of 0.9% normal saline are replaced to prevent dehydration. The whole blood samples are maintained on ice until centrifugation. Blood samples are then centrifuged at 14,000 rpm for 10 minutes at 4° C. and the upper plasma layer transferred into a clean vial and stored at −80° C. The resulting plasma samples are then analyzed by liquid chromatography-tandem mass spectrometry. Following the measurement of plasma samples and dosing solutions, plasma concentration-time curve is plotted. Plasma exposure is calculated as the area under the concentration-time curve extrapolated to time infinite (AUCinf). The AUCinf is averaged and the oral bioavailability (% F) for individual animal is calculated as:
AUCinf (PO)/AUCinf (IV), normalized to their respective dose levels. The % F is reported as the mean % F of all animals dosed orally with the compound of the invention at the specified level (Table 6).
In vivo clearance in the rat was calculated by conducting a non-compartmental analysis of the pharmacokinetic profile using WinNonlin software.

VR1 receptor = assay: Calcium imaging assay in DRG neurons (capsaicin); type: cell-based; conditions: 3 nM, FIG. 1
Procedure: Therefore the functional activity of compounds at the VR1 receptor may be determined by measuring changes in intracellular calcium levels in neurons such as the dorsal root ganglion. […] Prior to assay, cells were loaded with 5 μg/ml Fura2 in normal saline solution at 37° C. for 40 minutes. Cells were then washed with normal saline to remove dye before commencement of the experiment. The plated neurons were transferred into a chamber on the stage of a Nikon eclipse TE300 microscope after which neurons were allowed to attain a stable fluorescence for about 10 minutes before beginning the experiment. The assay consists of two stages, a pretreatment phase followed by a treatment phase. First, a solution of the test compound was added from a multivalve perfusion system to the cells for 1 minute (pretreatment). […] Fura2 was excited at […] to indicate relative calcium ion concentration. Changes in wavelength measurements were made throughout the course of the experiment. The fluorescence ratio was calculated by dividing fluorescence measured at 340 nm by that at 380 nM. Data were collected using Intelligent Imaging's Slidebook software.

[3] = system: Dorsal root ganglion (DRG) neurons; assay: Whole-cell patch clamp electrophysiology; type: cell-based; conditions: Rattus norvegicus, DRG neuron, read-out: % inhibition of capsaicin induced current
Procedure: Dorsal root ganglion (DRG) neurons were recovered from either neonatal or adult rats and plated onto poly-D-lysine coated glass coverslips. The plated neurons were transferred into a chamber to allow drug solutions to be added to the cells using a computer-controlled solenoid-valve based perfusion system. The cells were imaged using standard DIC optics. Cells were patched using finely-pulled glass electrodes. Voltage-clamp electrophysiology experiments were carried out using an Axon Instruments Multiclamp amplified controlled by pCLAMP8 software.

VR1 [4] = molecular target: T1, VR1; assay: Acid stimulation assay (FDSS 6000); type: cell-based; conditions: final assay buffer pH5.8, 15 min pre-incubation
Procedure: The Acid-induced changes in the intracellular calcium concentration were monitored using FDSS 6000 (Hamamatsu Photonics, Japan), a fluorometric imaging system. The cell suspension in resting buffer (HBSS supplemented with 10 mM HEPES, pH 7.4) was pre-incubated with varying concentrations of the test compounds or resting buffer (buffer control) for 15 minutes at room temperature under dark conditions. The cells were automatically added the stimulating solution (HBSS supplemented with MES, final assay buffer pH5.8) by the FDSS 6000.
Target sequence in this assay (Q8NER1 whole entry, species assumed): as the sequence (Q8NER1 whole entry) above

[5] = Half-life in human liver microsomes (HLM); type: in vitro ADME; conditions: pH 7.4, 1 μM compound, 0.78 mg/mL HLM, 37° C.
Procedure: Test compounds (1 μM) are incubated with 3.3 mM MgCl2 and 0.78 mg/mL HLM (HL101) in 100 mM potassium phosphate buffer (pH 7.4) at 37° C. on the 96-deep well plate. The reaction mixture is split into two groups, a non-P450 and a P450 group. NADPH is only added to the reaction mixture of the P450 group. An aliquot of samples of P450 group is collected at 0, 10, 30, and 60 min time point, where 0 min time point indicated the time when NADPH is added into the reaction mixture of P450 group. An aliquot of samples of non-P450 group is collected at −10 and 65 min time point. Collected aliquots are extracted with acetonitrile solution containing an internal standard. The precipitated protein is spun down in centrifuge (2000 rpm, 15 min). The compound concentration in supernatant is measured by LC/MS/MS system.
The half-life value is obtained by plotting the natural logarithm of the peak area ratio of compounds/internal standard versus time. The slope of the line of best fit through the points yields the rate of metabolism (k). This is converted to a half-life value using following equations: […]

VR1 [6] = molecular target: T1, VR1; assay: Calcium uptake assay, low pH (proton) agonist; type: cell-based; set-up: expressed in transfected cells; host or cells: T-REx HEK 293 (Invitrogen), pcDNA5/TO vector; conditions: HEK293; 0.3 μM compound; low pH (protons) as agonist; HEK 293 cells expressing hVR1; read-out: Low pH % Inhib. @ 0.3 μM
Target sequence in this assay (Q8NER1 whole entry): as above

Compound: O=C(Nc1cccc2cnccc12)c1ccc(C#CC(F)(F)F)cc1 [Compound 45]
- inhibition of the Capsaicin induced intracellular calcium response (VR1 [1]): significant inhibition

Compound: C/C(=C\C(F)(F)F)c1ccc(C(=O)Nc2ccc3c(c2)OCCN3)cc1 [Compound 96]
- inhibition of the Capsaicin induced intracellular calcium response (VR1 [1]): significant inhibition

Compound: Cc1cc(C#CC(C)(C)C)ccc1C(=O)Nc1ccc2c(c1)OCC(CO)N2 (stereo not drawn) [Compound 167]
- inhibition of the Capsaicin induced intracellular calcium response (VR1 [1]): significant inhibition

Compound: Cc1cc(/C=C/C(F)(F)F)ccc1C(=O)Nc1cnc2ccccc2c1 [Compound 187, 2-Methyl-N-quinolin-3-yl-4-((E)-3,3,3-trifluoro-propenyl)-benzamide]
- inhibition of the Capsaicin induced intracellular calcium response (VR1 [1]): significant inhibition
- bioavailability [2]: 43%
- clearance [2]: 1.83 mL/min/kg

Compound: Cc1cc(/C=C/C(F)(F)F)ccc1C(=O)Nc1ccc2sc(CO)nc2c1 [Compound 225]
- clearance [2]: 1.52 mL/min/kg
- inhibition of the Capsaicin induced intracellular calcium response (VR1 receptor): reduced; also recorded: significant inhibition

Compound: Cc1cc(/C=C/C(F)(F)F)ccc1C(=O)Nc1cnc2c(c1)OCC(CO)N2 (stereo not drawn) [Compound 233]
- inhibition of the Capsaicin induced intracellular calcium response (VR1 [1]): significant inhibition
- bioavailability [2]: 54%
- clearance [2]: 33.3 mL/min/kg

Compound: COc1cc(NC(=O)c2ccc(/C=C/C(C)C)cc2)cc(C(F)(F)F)c1 [Compound 240]
- inhibition at 0.1 µM [3]: 50%

Compound: Cc1nc2cc(NC(=O)c3ccc(/C=C/C(F)(F)F)cc3C)cnc2s1 [Compound 412, (E)-2-methyl-N-(2-methylthiazolo[5,4-b]pyridin-6-yl)-4-(3,3,3-trifluoroprop-1-enyl)benzamide]
- IC50 (VR1 [4]): 20 nM
- bioavailability [2]: 11%
- clearance [2]: 7.17 mL/min/kg
- half-life at 1 μM [5]: 0.81 h
- inhibition at 0.3 µM (VR1 [6]): 105%

Compound: Cc1cc(/C=C/C(F)(F)F)ccc1C(=O)Nc1cnc2sc(CO)nc2c1 [Compound 413, (E)-N-(2-(hydroxymethyl)thiazolo[5,4-b]pyridin-6-yl)-2-methyl-4-(3,3,3-trifluoroprop-1-enyl)benzamide]
- IC50 (VR1 [4]): 4 nM
- bioavailability [2]: > 100%
- clearance [2]: 3.83 mL/min/kg
- half-life at 1 μM [5]: 3.22 h
- inhibition at 0.3 µM (VR1 [6]): 110%

Compound: Cc1cc(/C=C/C(F)(F)F)ccc1C(=O)Nc1cnc2scnc2c1 [Compound 415, (E)-2-methyl-N-(thiazolo[5,4-b]pyridin-6-yl)-4-(3,3,3-trifluoroprop-1-enyl)benzamide]
- IC50 (VR1 [4]): 8 nM
- bioavailability [2]: 45%
- clearance [2]: 0.833 mL/min/kg
- half-life at 1 μM [5]: 4.82 h
- inhibition at 0.3 µM (VR1 [6]): 130%
